Target: T1, human β3 adrenergic receptor (Homo sapiens, UniProt P13945)
T1 construct: expressed in transfected cells; host or cells: DXB-11 Chinese hamster ovary (CHO) cell line, stably transfected (phd expression vector)
Assay: whole cell receptor coupled c-AMP assay, human β3 receptor in CHO cells (EC50, Emax relative to isoproterenol)
Assay type: cell-based
Outline: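 Stably transfected DXB-11 CHO cells (20,000/well) were exposed to compound for 20 min at 37 °C in HBSS/HEPES buffer with 1 mM IBMX, pH 7.4. cAMP was measured by SPA. EC50 came from a four-parameter logistic fit, and Emax is the maximal response as a percentage of isoproterenol's.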

[1] = Emax ± standard error of the mean, average of at least 3 runs except where n = 1, compound tested in the isolated form listed
[2] = Emax ± SEM, average of at least 3 runs except as otherwise indicated, tested as the isolated form listed
[3] = % intrinsic activity relative to isoproterenol maximal response, average of at least 3 runs, c-AMP in transfected CHO cells

T1 sequence (P13945 whole entry): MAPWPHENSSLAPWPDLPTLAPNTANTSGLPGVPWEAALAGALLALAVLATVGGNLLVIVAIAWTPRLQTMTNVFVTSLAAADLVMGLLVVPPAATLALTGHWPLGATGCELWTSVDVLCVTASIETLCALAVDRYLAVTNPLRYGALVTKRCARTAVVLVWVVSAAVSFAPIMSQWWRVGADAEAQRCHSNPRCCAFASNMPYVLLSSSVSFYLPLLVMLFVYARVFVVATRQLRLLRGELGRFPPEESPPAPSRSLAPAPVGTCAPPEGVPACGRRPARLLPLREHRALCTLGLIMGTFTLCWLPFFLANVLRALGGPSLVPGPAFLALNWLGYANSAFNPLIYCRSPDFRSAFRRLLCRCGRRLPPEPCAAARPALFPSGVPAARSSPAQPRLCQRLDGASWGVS

CC(C)(Cc1ccccc1-c1ccc(C#N)cc1)NC[C@H](O)COc1ccccc1-c1ccno1.Cl [Example 290]
Emax (%) ± SEM [1]: 22.7 ± 1.7%

CC(C)(Cc1ccc(Oc2cccnc2C#N)cc1)NC[C@H](O)COc1ccccc1-c1ccon1.Cl [Example 297]
Emax (%) ± SEM [1]: 74.5 ± 6.7%

CC(C)(Cc1ccc(Oc2ccc(C(N)=O)nc2)cc1)NC[C@H](O)COc1ccccc1-c1ccon1.Cl [Example 298]
Emax (%) ± SEM [1]: 54.5 ± 0.8%

CC(C)(Cc1ccc(Oc2ccc(C(N)=O)cc2)cc1)NC[C@H](O)COc1ccccc1-c1ccon1.Cl [Example 299]
Emax (%) ± SEM [1]: 45.9 ± 3.9%

CC(C)(Cc1ccc(Oc2ccc(C#N)nc2)cc1)NC[C@H](O)COc1ccccc1-c1ccon1.Cl [Example 300]
Emax (%) ± SEM [2]: 52.2 ± 5.9%

CC(C)(Cc1ccc(Oc2ccccc2C(N)=O)cc1)NC[C@H](O)COc1ccccc1-c1ccon1.Cl [Example 301]
Emax (%) ± SEM [2]: 69.2 ± 1.2%

CC(C)(Cc1ccc(Oc2ncccc2C(N)=O)cc1)NC[C@H](O)COc1ccccc1-c1ccoc1.Cl [Example 303]
Emax (%) ± SEM [2]: 67.9 ± 6.1%

CC(C)(Cc1ccc(Oc2ccc(S(C)(=O)=O)cc2)cc1)NC[C@H](O)COc1ccccc1-c1ccoc1.Cl [Example 304]
Emax (%) ± SEM [2]: 44.8 ± 4.9%

CC(C)(Cc1ccc(Oc2ccc(C#N)cn2)cc1)NC[C@H](O)COc1ccccc1-c1ccoc1.Cl [Example 305]
Emax (%) ± SEM [2]: 68.8 ± 6.5%

CC(C)(Cc1ccc(Oc2ncccc2C#N)cc1)NC[C@H](O)COc1ccccc1-c1ccoc1.Cl [Example 306]
Emax (%) ± SEM [2]: 82.4 ± 4.0%

CC(C)(Cc1ccc(Oc2cccnc2C#N)cc1)NC[C@H](O)COc1ccccc1-c1ccoc1.Cl [Example 307]
Emax (%) ± SEM [2]: 74.4 ± 1.8%

CC(C)(Cc1ccc(Oc2ncccc2C(N)=O)cc1)NC[C@H](O)COc1ccccc1-c1ncco1.Cl [Example 308]
Emax (%) ± SEM [2]: 71.2 ± 5.8%

CC(C)(Cc1ccc(Oc2ccc(C(N)=O)o2)cc1)NC[C@H](O)COc1ccccc1-c1nccs1.O=C(O)C(F)(F)F [Example 327]
Emax (%) ± SEM [2]: 56.7 ± 2.1%

CC(C)(Cc1ccc(Oc2ccc(C#N)s2)cc1)NC[C@H](O)COc1ccccc1-c1nccs1.O=C(O)C(F)(F)F [Example 328]
Emax (%) ± SEM [2]: 57.4 ± 6.5%

CC(C)(Cc1ccc(Oc2ccc(C(N)=O)s2)cc1)NC[C@H](O)COc1ccccc1-c1nccs1.O=C(O)C(F)(F)F [Example 329]
Emax (%) ± SEM [2]: 60.2 ± 3.0%

CC(C)(Cc1ccc(Oc2ccc(C#N)o2)cc1)NC[C@H](O)COc1ccccc1-c1nccs1.O=C(O)C(F)(F)F [Example 330]
Emax (%) ± SEM [2]: 55.9 ± 2.8%

CC(C)(Cc1ccc(Oc2ccc(C#N)nc2)cc1)NC[C@H](O)COc1ccccc1-c1ncco1.O=C(O)C(F)(F)F [Example 364]
Emax (%) ± SEM [2]: 69.2 ± 2.5%

CC(C)(Cc1ccc(Oc2ccccc2C(N)=O)cc1)NC[C@H](O)COc1ccccc1-c1ncco1.O=C(O)C(F)(F)F [Example 365]
Emax (%) ± SEM [2]: 80.2 ± 5.6%

CC(C)(Cc1ccc(Oc2ccc(C(N)=O)cn2)cc1)NC[C@H](O)COc1ccccc1-c1cc2ccccc2o1 [Example 370]
Emax (%) ± SEM [3]: 40.3 ± 2.8%

CC(C)(Cc1ccc(Oc2ncccc2C#N)cc1)NC[C@H](O)COc1ccccc1-c1cc2ccccc2o1 [Example 371]
Emax (%) ± SEM [3]: 38.9 ± 3.9%

CC(C)(Cc1ccc(Oc2ncccc2C(N)=O)cc1)NC[C@H](O)COc1ccccc1-c1cc2ccccc2o1 [Example 372]
Emax (%) ± SEM [3]: 56.3 ± 4.8%

CC(C)(Cc1ccc(Oc2ccc(C#N)cn2)cc1)NC[C@H](O)COc1ccccc1-c1ccncc1 [Example 373]
Emax (%) ± SEM [3]: 29.0 ± 6.8%

CC(C)(Cc1ccc(Oc2ccc(C(N)=O)cn2)cc1)NC[C@H](O)COc1ccccc1-c1ccncc1 [Example 374]
Emax (%) ± SEM [3]: 49.3 ± 0.3%

CC(C)(Cc1ccc(Oc2ncccc2C#N)cc1)NC[C@H](O)COc1ccccc1-c1ccncc1 [Example 375]
Emax (%) ± SEM [3]: 35.1 ± 7.3%

CC(C)(Cc1ccc(Oc2ncccc2C(N)=O)cc1)NC[C@H](O)COc1ccccc1-c1ccncc1 [Example 376]
Emax (%) ± SEM [3]: 48.2 ± 6.7%

CC(C)(Cc1ccc(Oc2ccc(S(C)(=O)=O)cc2)cc1)NC[C@H](O)COc1ccccc1-c1ccncc1.Cl.Cl [Example 377]
Emax (%) ± SEM [3]: 33.0 ± 4.2%

CC(C)(Cc1ccc(Oc2ccc(C#N)cn2)cc1)NC[C@H](O)COc1ccccc1-c1ccsc1 [Example 378]
Emax (%) ± SEM [3]: 60.2 ± 3.2%

CC(C)(Cc1ccc(Oc2ccc(C(N)=O)cn2)cc1)NC[C@H](O)COc1ccccc1-c1ccsc1 [Example 379]
Emax (%) ± SEM [3]: 37.7 ± 1.6%

CC(C)(Cc1ccc(Oc2ncccc2C#N)cc1)NC[C@H](O)COc1ccccc1-c1ccsc1 [Example 380]
Emax (%) ± SEM [3]: 57.4 ± 4.1%

CC(C)(Cc1ccc(Oc2ncccc2C(N)=O)cc1)NC[C@H](O)COc1ccccc1-c1ccsc1.O=C(O)C(F)(F)F [Example 381]
Emax (%) ± SEM [3]: 58.5 ± 6.9%

CC(C)(Cc1ccc(Oc2ccc(S(C)(=O)=O)cc2)cc1)NC[C@H](O)COc1ccccc1-c1ccsc1.Cl [Example 382]
Emax (%) ± SEM [3]: 32.3 ± 1.9%

CC(C)(Cc1ccc(Oc2ccc(S(C)(=O)=O)cc2)cc1)NC[C@H](O)COc1ccccc1-c1cccs1.Cl [Example 383]
Emax (%) ± SEM [3]: 52.1 ± 5.4%

CC(C)(Cc1ccc(Oc2ccc(C#N)cn2)cc1)NC[C@H](O)COc1ccccc1-c1cc2ccccc2s1 [Example 384]
Emax (%) ± SEM [3]: 45.4 ± 5.6%

CC(C)(Cc1ccc(Oc2ccc(C(N)=O)cn2)cc1)NC[C@H](O)COc1ccccc1-c1cc2ccccc2s1 [Example 385]
Emax (%) ± SEM [3]: 43.1 ± 4.3%

CC(C)(Cc1ccc(Oc2ncccc2C#N)cc1)NC[C@H](O)COc1ccccc1-c1cc2ccccc2s1 [Example 386]
Emax (%) ± SEM [3]: 46.9 ± 6.7%

CC(C)(Cc1ccc(Oc2ncccc2C(N)=O)cc1)NC[C@H](O)COc1ccccc1-c1cc2ccccc2s1.O=C(O)C(F)(F)F [Example 387]
Emax (%) ± SEM [3]: 78.7 ± 14.9%

CC(C)(Cc1ccc(Oc2ccc(C#N)cn2)cc1)NC[C@H](O)COc1ccccc1-c1cccnc1 [Example 388]
Emax (%) ± SEM [3]: <10%

CC(C)(Cc1ccc(Oc2ccc(C(N)=O)cn2)cc1)NC[C@H](O)COc1ccccc1-c1cccnc1 [Example 389]
Emax (%) ± SEM [3]: 20.3 ± 2.0%

CC(C)(Cc1ccc(Oc2ncccc2C#N)cc1)NC[C@H](O)COc1ccccc1-c1cccnc1 [Example 390]
Emax (%) ± SEM [3]: 14.4 ± 1.7%

CC(C)(Cc1ccc(Oc2ncccc2C(N)=O)cc1)NC[C@H](O)COc1ccccc1-c1cccnc1 [Example 391]
Emax (%) ± SEM [3]: 22.5 ± 1.5%

CC(C)(Cc1ccc(Oc2ccc(S(C)(=O)=O)cc2)cc1)NC[C@H](O)COc1ccccc1-c1cccnc1.Cl.Cl [Example 392]
Emax (%) ± SEM [3]: 17.6 ± 0.4%

CC(C)(Cc1ccc(Oc2ccc(S(C)(=O)=O)cc2)cc1)NC[C@H](O)COc1ccccc1-c1ccc(Cl)s1.Cl [Example 393]
Emax (%) ± SEM [3]: 50.0 ± 3.6%

CC(=O)c1ccc(-c2ccccc2OC[C@@H](O)CNC(C)(C)Cc2ccc(Oc3ccc(S(C)(=O)=O)cc3)cc2)s1.Cl [Example 394]
Emax (%) ± SEM [3]: 76.9 ± 5.0%

CC(C)(Cc1ccc(Oc2ccc(S(C)(=O)=O)cc2)cc1)NC[C@H](O)COc1ccccc1-c1ccco1.Cl [Example 395]
Emax (%) ± SEM [3]: 46.6 ± 5.9%

Cc1ccc(-c2ccccc2OC[C@@H](O)CNC(C)(C)Cc2ccc(Oc3ccc(S(C)(=O)=O)cc3)cc2)s1.Cl [Example 396]
Emax (%) ± SEM [3]: 50.5 ± 1.9%

Cc1ccc(-c2ccccc2OC[C@@H](O)CNC(C)(C)Cc2ccc(Oc3ccc(C#N)cn3)cc2)s1.Cl [Example 405]
Emax (%) ± SEM [3]: 64.4 ± 7.1%

CC(C)(Cc1ccc(Oc2ccc(C#N)cn2)cc1)NC[C@H](O)COc1ccccc1-c1ccc(Cl)s1.O=C(O)C(F)(F)F [Example 406]
Emax (%) ± SEM [3]: 55.8 ± 7.1%

CC(=O)c1ccc(-c2ccccc2OC[C@@H](O)CNC(C)(C)Cc2ccc(Oc3ccc(C#N)cn3)cc2)s1.Cl [Example 407]
Emax (%) ± SEM [3]: 79.7 ± 7.6%

CC(C)(Cc1ccc(Oc2ccc(C#N)cn2)cc1)NC[C@H](O)COc1ccccc1-c1ccco1.Cl [Example 408]
Emax (%) ± SEM [3]: 74.0 ± 6.5%

Cc1ccc(-c2ccccc2OC[C@@H](O)CNC(C)(C)Cc2ccc(Oc3ccc(C(N)=O)cn3)cc2)s1.Cl [Example 409]
Emax (%) ± SEM [3]: 71.3 ± 3.9%

CC(C)(Cc1ccc(Oc2ccc(C(N)=O)cn2)cc1)NC[C@H](O)COc1ccccc1-c1ccc(Cl)s1.Cl [Example 410]
Emax (%) ± SEM [3]: 76.0 ± 5.0%

CC(=O)c1ccc(-c2ccccc2OC[C@@H](O)CNC(C)(C)Cc2ccc(Oc3ccc(C(N)=O)cn3)cc2)s1.O=C(O)C(F)(F)F [Example 411]
Emax (%) ± SEM [3]: 78.2 ± 9.9%

CC(C)(Cc1ccc(Oc2ccc(C(N)=O)cn2)cc1)NC[C@H](O)COc1ccccc1-c1ccco1.Cl [Example 412]
Emax (%) ± SEM [3]: 74.4 ± 7.0%

Cc1ccc(-c2ccccc2OC[C@@H](O)CNC(C)(C)Cc2ccc(Oc3ncccc3C#N)cc2)s1.Cl [Example 413]
Emax (%) ± SEM [3]: 66.9 ± 9.2%

CC(C)(Cc1ccc(Oc2ncccc2C#N)cc1)NC[C@H](O)COc1ccccc1-c1ccc(Cl)s1.O=C(O)C(F)(F)F [Example 414]
Emax (%) ± SEM [3]: 65.7 ± 11.4%
